Like-named read-outs stand apart in the source and are kept apart here.
Columns and labels:
[1] = test system: Pseudomonas aeruginosa efflux− (MB9799), IMP-1; assay type: cell-based; conditions: C, D serine β-lactamase inhibitor closely related to relebactam; for P. aeruginosa expressing IMP-1, efflux − (MB9799) MITC95: concentration restoring susceptibility to imipenem at 2 μg/mL in the presence of a class A; for Concentration of metallo-β-lactamase inhibitor which restores susceptibility of efflux − (MB9799) strain to imipenem: imipenem at 2 μg/mL, in the presence of a class A
Method in brief: (§1)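 Steps: add fixed imipenem and/or ceftazidime (usually CLSI breakpoint) and fixed AmpC-directed class A/C inhibitor to microbroth MIC wells; titrate MBL inhibitor; record concentration regaining susceptibility for each PAO1-derived strain; divide efflux+ by efflux− value.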

[2] = test system: Pseudomonas aeruginosa MB9798 vs MB9799
Method in brief: as §1

[3] = test system: Escherichia coli expressing NDM-1 (CLB30005, CLB30016); assay type: cell-based; conditions: with imipenem 1 μg/ml; for Escherichia coli expressing NDM-1 (CLB30016) MITC95: 95% inhibition of bacterial growth; for Escherichia coli MITC95: NDM-1 strain, 95% inhibition of growth
Method in brief: (§2)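 Imipenem 1 μg/ml + inhibitor; MBL-expressing clinical strains in 1.1×CAMHB, inoculum from saline suspension diluted 1:100; 35° C, 22–24 h; absorbance read-out.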

[4] = test system: Serratia marcescens expressing IMP-1 (CL5741); assay type: cell-based; conditions: for Serratia marcescens expressing IMP-1 (CL5741) MITC95: with imipenem 1 μg/ml, 95% inhibition of bacterial growth; for Serratia marcescens MITC95: IMP-1 strain CL5741, with imipenem 1 μg/ml, 95% inhibition of growth
Method in brief: as §2

[5] = test system: Klebsiella pneumoniae expressing VIM-1 (IHMA599644); assay type: cell-based; conditions: for Klebsiella pneumoniae expressing VIM-1 (IHMA599644) MITC95: with imipenem 1 μg/ml, 95% inhibition of bacterial growth; for Klebsiella pneumoniae MITC95: VIM-1 strain IHMA599644, with imipenem 1 μg/ml, 95% inhibition of growth
Method in brief: as §2

[6] = molecular target: VIM-1 (Pseudomonas aeruginosa (strain ATCC 15692 / DSM 22644 / CIP 104116 / JCM 14847 / LMG 12228 / 1C / PRS 101 / PAO1), UniProt A0A0F7KYQ8); experiment: biochemical; conditions: CCF2-FA substrate, 30 pM enzyme, 2 hours at 25° C.
Method in brief: (§3)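 Semi-log dose-response curves, fitted with a 4-parameter model, gave IC50s. The underlying signal was CCF2-FA fluorescence following 2 hours at 25° C with enzyme, substrate and inhibitor combined.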

[7] = molecular target: IMP-1 (Serratia marcescens, UniProt P52699); experiment: biochemical; assay type: biochemical; conditions: fluorescence assay, CCF2-FA substrate, 2 pM enzyme, 2 hours at 25° C.; read-out: IMP-1 IC50
Method in brief: as §3

[8] = molecular target: NDM-1 (Klebsiella pneumoniae, UniProt C7C422); experiment: biochemical; assay type: biochemical; conditions: fluorescence assay, CCF2-FA substrate, 1 pM enzyme, 2 hours at 25° C.; read-out: NDM-1 IC50
Method in brief: as §3

[9] = test system: Pseudomonas aeruginosa efflux+ (MB9798), IMP-1; assay type: cell-based; set-up: Concentration of metallo-β-lactamase inhibitor which restores susceptibility of efflux + (MB9798) strain to imipenem: unit not given here; conditions: C, D serine β-lactamase inhibitor closely related to relebactam; for P. aeruginosa expressing IMP-1, efflux + (MB9798) MITC95: concentration restoring susceptibility to imipenem at 2 μg/mL in the presence of a class A; for Concentration of metallo-β-lactamase inhibitor which restores susceptibility of efflux + (MB9798) strain to imipenem: imipenem at 2 μg/mL, in the presence of a class A
Method in brief: as §1

[10] = ratio MITC95 PA_9798/MITC95 PA_9799
[11] = fluorescence assay, read-out: VIM-1 IC50
[12] = fold difference between efflux+ (MB9798) and efflux− (MB9799) strains, imipenem at 2 μg/mL

Chain of NDM-1 (C7C422 whole entry, looked up, species assumed): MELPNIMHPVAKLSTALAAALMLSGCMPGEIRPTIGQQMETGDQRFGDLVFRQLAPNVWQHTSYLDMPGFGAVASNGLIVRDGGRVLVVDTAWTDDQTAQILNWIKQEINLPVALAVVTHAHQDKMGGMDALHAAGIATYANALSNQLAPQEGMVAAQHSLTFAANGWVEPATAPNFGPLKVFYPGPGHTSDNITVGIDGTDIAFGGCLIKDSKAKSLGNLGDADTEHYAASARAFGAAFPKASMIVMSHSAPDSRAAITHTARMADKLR
Chain of IMP-1 (P52699 whole entry, looked up, species assumed): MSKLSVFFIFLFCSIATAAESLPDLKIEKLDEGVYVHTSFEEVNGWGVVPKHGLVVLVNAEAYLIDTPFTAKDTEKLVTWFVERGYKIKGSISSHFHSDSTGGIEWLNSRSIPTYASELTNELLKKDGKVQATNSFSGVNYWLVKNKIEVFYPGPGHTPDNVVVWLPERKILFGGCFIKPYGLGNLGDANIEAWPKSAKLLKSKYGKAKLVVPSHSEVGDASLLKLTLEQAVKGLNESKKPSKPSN

| Compound | P. aeruginosa expressing IMP-1, efflux − (MB9799) MITC95 [1] [µM] | Efflux ratio [2, 10] | Escherichia coli expressing NDM-1 (CLB30016) MITC95 [3] [µM] | Serratia marcescens expressing IMP-1 (CL5741) MITC95 [4] [µM] | Klebsiella pneumoniae expressing VIM-1 (IHMA599644) MITC95 [5] [µM] | IC50 [6, 11] [nM] | IC50 [7] [nM] | IC50 [8] [nM] | P. aeruginosa expressing IMP-1, efflux + (MB9798) MITC95 [9] [µM] | Concentration of metallo-β-lactamase inhibitor which restores susceptibility of efflux − (MB9799) strain to imipenem [1] | Efflux ratio [2, 12] | Escherichia coli MITC95 [3] [µM] | Serratia marcescens MITC95 [4] [µM] | Klebsiella pneumoniae MITC95 [5] [µM] | Concentration of metallo-β-lactamase inhibitor which restores susceptibility of efflux + (MB9798) strain to imipenem [9] | IC50 ([6]; VIM-1 IC50, fluorescence assay) [nM] |
| --- | --- | --- | --- | --- | --- | --- | --- | --- | --- | --- | --- | --- | --- | --- | --- | --- |
| NC[C@H](N)CNS(=O)(=O)c1ccc(-c2cccnc2N)c(-c2nn[nH]n2)c1S(N)(=O)=O [Example 213, (S)-4-(2-aminopyridin-3-yl)-N1-(2,3-diaminopropyl)-3-(2H-tetrazol-5-yl)benzene-1,2-disulfonamide] | 1.563 | 2.00 | 0.3906 | 0.7813 | 1.563 | 0.113 | 1.54 | 0.0759 | 3.125 | – | – | – | – | – | – | – |
| COCCNCCNS(=O)(=O)c1ccc(-c2cccc3sc(N)nc23)c(-c2nnn[nH]2)c1S(N)(=O)=O [Example 85, 4-(2-aminobenzo[d]thiazol-4-yl)-N1-(2-((2-methoxyethyl)amino)ethyl)-3-(1H-tetrazol-5-yl)benzene-1,2-disulfonamide] | 1.563 | 1.00 | 6.25 | 3.125 | 6.25 | 0.147 | 0.205 | 0.0351 | 1.563 | – | – | – | – | – | – | – |
| NC[C@@H](CO)NS(=O)(=O)c1ccc(-c2cccc3[nH]c(N)nc23)c(-c2nnn[nH]2)c1S(N)(=O)=O [Example 426, (S)-4-(2-Amino-1H-benzo[d]imidazol-4-yl)-N^1-(1-amino-3-hydroxypropan-2-yl)-3-(1H-tetrazol-5-yl)benzene-1,2-disulfonamide] | – | – | – | – | – | 0.168 | 0.273 | 0.0322 | – | 0.7813 | 0.50 | 0.3906 | 0.7813 | 1.563 | 0.3906 | – |
| Nc1nc2c(-c3ccc(S(=O)(=O)N4CC5(CCNC5)C4)c(S(N)(=O)=O)c3-c3nnn[nH]3)cccc2s1 [Example 48, 3-(2-amino-1,3-benzothiazol-4-yl)-6-(2,6-diazaspiro[3.4]oct-2-ylsulfonyl)-2-(1H-tetrazol-5-yl)benzenesulfonamide] | 1.563 | 1.00 | 6.25 | 3.125 | 3.125 | 0.49 | 0.951 | 0.258 | 1.563 | – | – | – | – | – | – | – |
| N[C@H]1CNC[C@H]1NS(=O)(=O)c1ccc(-c2cnc3cc[nH]c3c2)c(-c2nn[nH]n2)c1S(N)(=O)=O [Example 320] | 0.7813 | 2.00 | – | – | – | – | 1.21 | 0.0902 | 1.563 | – | – | 0.7813 | 0.7813 | 3.125 | – | 0.296 |
| Nc1ncc(-c2ccc(S(=O)(=O)N[C@@H]3CNC[C@@H]3N)c(S(N)(=O)=O)c2-c2nn[nH]n2)s1 [Example 321, N^1-((3R,4S)-4-aminopyrrolidin-3-yl)-4-(2-aminothiazol-5-yl)-3-(2H -tetrazol-5-yl)benzene-1,2-disulfonamide] | 0.7813 | 2.00 | – | – | – | – | 1.25 | 0.376 | 1.563 | – | – | 0.7813 | 1.563 | 3.125 | – | 0.958 |
| C[C@H](CN)NS(=O)(=O)c1ccc(-c2cncc(N)c2)c(-c2nn[nH]n2)c1S(N)(=O)=O [Example 221, (R)—N1-(1-aminopropan-2-yl)-4-(5-aminopyridin-3-yl)-3-(2H-tetrazol-5-yl)benzene-1,2-disulfonamide] | 1.563 | 1.00 | 1.563 | 1.563 | 6.25 | 0.152 | 0.688 | 0.281 | 1.563 | – | – | – | – | – | – | – |
| Nc1nc2c(-c3ccc(S(=O)(=O)N4CCC[C@H](N)C4)c(S(N)(=O)=O)c3-c3nnn[nH]3)cccc2s1 [Example 66, 3-(2-amino-1,3-benzothiazol-4-yl)-6-{[(3S)-3-aminopiperidin-1-yl]sulfonyl}-2-(1H-tetrazol-5-yl)benzenesulfonamide] | 1.563 | 2.00 | 3.125 | 3.125 | 6.25 | 4.01 | 2.26 | 1.09 | 3.125 | – | – | – | – | – | – | – |
| Nc1nc2c(-c3ccc(S(=O)(=O)NCCO)c(S(N)(=O)=O)c3-c3nn[nH]n3)cccc2s1 [Example 144, 4-(2-aminobenzo[d]thiazol-4-yl)-N1-(2-hydroxyethyl)-3-(2H-tetrazol-5-yl)benzene-1,2-disulfonamide] | 3.125 | 1.00 | 12.5 | 3.125 | 12.5 | 0.162 | 0.288 | 0.0898 | 3.125 | – | – | – | – | – | – | – |
| Nc1ccc2cccc(-c3ccc(S(N)(=O)=O)c(S(N)(=O)=O)c3-c3nn[nH]n3)c2n1 [Example 2, 4-(2-aminoquinolin-8-yl)-3-(2H-tetrazol-5-yl)benzene-1,2-disulfonamide] | 0.7813 | 1.00 | 0.7813 | 0.7813 | 1.563 | 0.462 | 0.279 | 0.163 | 0.7813 | – | – | – | – | – | – | – |
| Cn1c(N)nc2c(-c3ccc(S(=O)(=O)N4CCNCC4)c(S(N)(=O)=O)c3-c3nn[nH]n3)cccc21 [Example 158, 3-(2-amino-1-methyl-1H-benzo[d]imidazol-4-yl)-6-(piperazin-1-ylsulfonyl)-2-(2H-tetrazol-5-yl)benzenesulfonamide] | 0.8906 | 3.51 | 0.25 | 0.8906 | 1.781 | – | 1.71 | 0.601 | 3.125 | – | – | – | – | – | – | 1.27 |
| NCCNc1cc(-c2ccc(S(=O)(=O)N[C@@H]3CCNC3)c(S(N)(=O)=O)c2-c2nn[nH]n2)ccn1 [Example 458, (R)-4-(2-((2-aminoethyl)amino)pyridin-4-yl)-N1-(pyrrolidin-3-yl)-3-(2H-tetrazol-5-yl)benzene-1,2-disulfonamide] | – | – | – | – | – | 0.132 | 3.77 | 0.532 | – | 0.7813 | 4.00 | 0.7813 | 1.563 | 1.563 | 3.125 | – |

Reference: patent US10221163B2 (priority 2015, dated 2019)
